In ChEMBL document CHEMBL1201862, “PubChem BioAssay data set” (2004):
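Step 1: Grow cells in 96-well plates. Step 2: Expose to compound for 48 hours at 5 concentrations. Step 3: Interpolate endpoints linearly; if unreached, use highest concentration. Here, GI50 denotes the concentration required for 50% inhibition of growth.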 Active and inactive are the calls of the source. No stated cut-off is given here; in the data, active = GI50 up to about 1.1 µM and inactive = higher.

Columns and labels:
Assay in all cases: DTP human tumour cell line panel, 48 h
[1] = system: 786-0
[2] = system: A549
[3] = system: ACHN
[4] = system: CAKI-1
[5] = system: CCRF-CEM
[6] = system: COLO 205
[7] = system: DLD-1
[8] = system: DMS-114
[9] = system: DMS-273
[10] = system: EKVX
[11] = system: HCC 2998
[12] = system: HCT-116
[13] = system: HCT-15
[14] = system: HL-60
[15] = system: HOP-18
[16] = system: HOP-62
[17] = system: HOP-92
[18] = system: HT-29
[19] = system: IGROV-1
[20] = system: K562
[21] = system: KM12
[22] = system: LOX IMVI
[23] = system: LXFL 529
[24] = system: M14
[25] = system: M19-MEL
[26] = system: MOLT-4
[27] = system: Malme-3M
[28] = system: NCI-H226
[29] = system: NCI-H23
[30] = system: NCI-H522
[31] = system: OVCAR-3
[32] = system: OVCAR-5
[33] = system: OVCAR-8
[34] = system: RPMI-8226
[35] = system: RXF 631
[36] = system: SF-268
[37] = system: SF-295
[38] = system: SF-539
[39] = system: SK-MEL-28
[40] = system: SK-MEL-2
[41] = system: SK-MEL-5
[42] = system: SK-OV-3
[43] = system: SN12C
[44] = system: SNB-75
[45] = system: SNB-78
[46] = system: SR
[47] = system: SW-620
[48] = system: TK-10
[49] = system: U-251
[50] = system: UACC-257
[51] = system: UACC-62
[52] = system: UO-31
[53] = system: XF498

**Q.** Which GI50 [1] does the source give for `CCOC(=O)/C(Br)=C1/OC(=O)c2ccccc2-c2ccccc21.CCOC(=O)/C(Br)=C1\OC(=O)c2ccccc2-c2ccccc21` here?
**A.** 17.1 µM (inactive)

**Q.** What about the GI50 [2] of the same molecule?
**A.** 26.3 µM (inactive)

**Q.** What about the GI50 [3] of the same molecule?
**A.** 15.7 µM (inactive)

**Q.** What about the GI50 [4] of the same molecule?
**A.** 16.4 µM (inactive)

**Q.** And the GI50 [5]?
**A.** 10.9 µM (inactive)

**Q.** What about the GI50 [6] of the same molecule?
**A.** 15.2 µM (inactive)

**Q.** And the GI50 [7]?
**A.** 17.9 µM (inactive)

**Q.** And the GI50 [8]?
**A.** 15.4 µM (inactive)

**Q.** And the GI50 [9]?
**A.** 14.7 µM (inactive)

**Q.** What about the GI50 [10] of the same molecule?
**A.** 31.7 µM (inactive)

**Q.** What about the GI50 [11] of the same molecule?
**A.** 21 µM (inactive)

**Q.** And the GI50 [12]?
**A.** 17.7 µM (inactive)

**Q.** And the GI50 [13]?
**A.** 19.6 µM

**Q.** What about the GI50 [14] of the same molecule?
**A.** 8.3 µM (inactive)

**Q.** What about the GI50 [15] of the same molecule?
**A.** 22 µM (inactive)

**Q.** What about the GI50 [16] of the same molecule?
**A.** 18.5 µM (inactive)

**Q.** And the GI50 [17]?
**A.** 11.8 µM (inactive)

**Q.** What about the GI50 [18] of the same molecule?
**A.** 11.3 µM (inactive)

**Q.** And the GI50 [19]?
**A.** 18.6 µM (inactive)

**Q.** And the GI50 [20]?
**A.** 4.3 µM (inactive)

**Q.** What about the GI50 [21] of the same molecule?
**A.** 14.8 µM (inactive)

**Q.** And the GI50 [22]?
**A.** 16.5 µM (inactive)

**Q.** What about the GI50 [23] of the same molecule?
**A.** 13.6 µM (inactive)

**Q.** And the GI50 [24]?
**A.** 17 µM (inactive)

**Q.** What about the GI50 [25] of the same molecule?
**A.** 15.8 µM (inactive)

**Q.** What about the GI50 [26] of the same molecule?
**A.** 14.7 µM (inactive)

**Q.** What about the GI50 [27] of the same molecule?
**A.** 17.7 µM (inactive)

**Q.** And the GI50 [28]?
**A.** 27.3 µM (inactive)

**Q.** What about the GI50 [29] of the same molecule?
**A.** 21 µM (inactive)

**Q.** What about the GI50 [30] of the same molecule?
**A.** 15.8 µM (inactive)

**Q.** And the GI50 [31]?
**A.** 18.2 µM (inactive)

**Q.** What about the GI50 [32] of the same molecule?
**A.** 20 µM (inactive)

**Q.** And the GI50 [33]?
**A.** 23.1 µM (inactive)

**Q.** What about the GI50 [34] of the same molecule?
**A.** 8.97 µM (inactive)

**Q.** What about the GI50 [35] of the same molecule?
**A.** 21.9 µM (inactive)

**Q.** What about the GI50 [36] of the same molecule?
**A.** 30.7 µM (inactive)

**Q.** And the GI50 [37]?
**A.** 21.9 µM (inactive)

**Q.** And the GI50 [38]?
**A.** 21.5 µM (inactive)

**Q.** What about the GI50 [39] of the same molecule?
**A.** 18.6 µM (inactive)

**Q.** What about the GI50 [40] of the same molecule?
**A.** 18.5 µM (inactive)

**Q.** And the GI50 [41]?
**A.** 17.5 µM (inactive)

**Q.** What about the GI50 [42] of the same molecule?
**A.** 36.2 µM (inactive)

**Q.** And the GI50 [43]?
**A.** 22.8 µM (inactive)

**Q.** What about the GI50 [44] of the same molecule?
**A.** 25.2 µM (inactive)

**Q.** What about the GI50 [45] of the same molecule?
**A.** 20.6 µM (inactive)

**Q.** What about the GI50 [46] of the same molecule?
**A.** 16 µM (inactive)

**Q.** What about the GI50 [47] of the same molecule?
**A.** 16.1 µM (inactive)

**Q.** What about the GI50 [48] of the same molecule?
**A.** 21.6 µM (inactive)

**Q.** And the GI50 [49]?
**A.** 23.2 µM (inactive)

**Q.** And the GI50 [50]?
**A.** 18.2 µM (inactive)

**Q.** And the GI50 [51]?
**A.** 15.4 µM (inactive)

**Q.** What about the GI50 [52] of the same molecule?
**A.** 39.8 µM (inactive)

**Q.** What about the GI50 [53] of the same molecule?
**A.** 18.5 µM (inactive)
